Calls of active or inactive are those of the source.
Tests used:
[1] = target: T1, Heat shock factor protein 1 (Mus musculus, UniProt P38532); assay: HSF1 potentiators in luciferase reporter cells, confirmation, cell-based, NIH3T3, luminescence, dose retest (AID 435004); format: functional;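 further: stress induced by proteasome inhibitor MG132 added 30 min after compound; luciferase reporter driven by HSF1 response element in NIH3T3 cells; actives raise luminescence as potentiators of the MG132 stress response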
T1 sequence (P38532 whole entry): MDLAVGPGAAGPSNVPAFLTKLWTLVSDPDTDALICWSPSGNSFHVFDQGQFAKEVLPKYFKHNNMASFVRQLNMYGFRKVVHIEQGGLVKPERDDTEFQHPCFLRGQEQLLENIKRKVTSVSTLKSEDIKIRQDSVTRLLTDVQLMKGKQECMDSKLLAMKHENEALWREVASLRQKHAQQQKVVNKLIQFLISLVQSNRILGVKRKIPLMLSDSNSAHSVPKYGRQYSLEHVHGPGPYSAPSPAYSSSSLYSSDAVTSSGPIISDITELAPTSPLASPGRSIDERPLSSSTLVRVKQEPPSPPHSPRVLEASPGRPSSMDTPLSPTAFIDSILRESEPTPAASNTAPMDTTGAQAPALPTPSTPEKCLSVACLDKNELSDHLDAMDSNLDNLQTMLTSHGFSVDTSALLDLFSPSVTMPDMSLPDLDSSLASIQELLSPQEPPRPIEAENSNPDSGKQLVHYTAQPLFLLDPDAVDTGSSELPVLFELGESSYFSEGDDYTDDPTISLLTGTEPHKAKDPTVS

[2] = target: T2, Replicative DNA helicase DnaB (Mycobacterium tuberculosis, UniProt P9WMR3); assay: DnaB intein splicing inhibitors, dose response, biochemical, cell-free fluorescence (AID 449749); format: functional
T2 sequence (P9WMR3 whole entry): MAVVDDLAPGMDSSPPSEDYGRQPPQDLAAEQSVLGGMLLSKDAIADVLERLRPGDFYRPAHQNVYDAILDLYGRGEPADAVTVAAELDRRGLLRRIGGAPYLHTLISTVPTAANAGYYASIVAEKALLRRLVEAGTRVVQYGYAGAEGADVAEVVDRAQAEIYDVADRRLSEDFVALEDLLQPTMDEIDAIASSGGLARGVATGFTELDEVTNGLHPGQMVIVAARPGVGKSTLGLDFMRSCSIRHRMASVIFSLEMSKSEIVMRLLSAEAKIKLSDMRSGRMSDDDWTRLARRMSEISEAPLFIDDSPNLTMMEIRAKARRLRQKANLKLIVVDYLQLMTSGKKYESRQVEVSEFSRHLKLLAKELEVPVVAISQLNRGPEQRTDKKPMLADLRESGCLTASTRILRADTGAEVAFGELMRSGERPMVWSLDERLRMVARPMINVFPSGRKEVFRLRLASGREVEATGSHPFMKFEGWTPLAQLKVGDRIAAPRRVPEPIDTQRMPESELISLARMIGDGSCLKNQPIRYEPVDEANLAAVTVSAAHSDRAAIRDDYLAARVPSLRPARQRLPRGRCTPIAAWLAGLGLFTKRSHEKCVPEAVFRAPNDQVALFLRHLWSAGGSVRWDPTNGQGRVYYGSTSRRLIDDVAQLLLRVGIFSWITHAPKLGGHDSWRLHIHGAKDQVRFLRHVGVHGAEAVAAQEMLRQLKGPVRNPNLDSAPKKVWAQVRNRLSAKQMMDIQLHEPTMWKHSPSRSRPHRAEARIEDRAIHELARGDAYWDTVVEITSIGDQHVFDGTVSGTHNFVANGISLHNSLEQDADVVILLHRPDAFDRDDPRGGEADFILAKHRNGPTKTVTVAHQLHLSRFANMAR

[3] = target: T3, Protein RecA (Mycobacterium tuberculosis, UniProt P9WHJ3); assay: Fluorescence Cell-Free Homogeneous Dose Retest to Identify Inhibitors of RecA-Intein Splicing Activity. [Related pubchem assays (depositor defined):AID2097, AID2223, AID489010, AID492950]; format: functional
T3 sequence (P9WHJ3 whole entry): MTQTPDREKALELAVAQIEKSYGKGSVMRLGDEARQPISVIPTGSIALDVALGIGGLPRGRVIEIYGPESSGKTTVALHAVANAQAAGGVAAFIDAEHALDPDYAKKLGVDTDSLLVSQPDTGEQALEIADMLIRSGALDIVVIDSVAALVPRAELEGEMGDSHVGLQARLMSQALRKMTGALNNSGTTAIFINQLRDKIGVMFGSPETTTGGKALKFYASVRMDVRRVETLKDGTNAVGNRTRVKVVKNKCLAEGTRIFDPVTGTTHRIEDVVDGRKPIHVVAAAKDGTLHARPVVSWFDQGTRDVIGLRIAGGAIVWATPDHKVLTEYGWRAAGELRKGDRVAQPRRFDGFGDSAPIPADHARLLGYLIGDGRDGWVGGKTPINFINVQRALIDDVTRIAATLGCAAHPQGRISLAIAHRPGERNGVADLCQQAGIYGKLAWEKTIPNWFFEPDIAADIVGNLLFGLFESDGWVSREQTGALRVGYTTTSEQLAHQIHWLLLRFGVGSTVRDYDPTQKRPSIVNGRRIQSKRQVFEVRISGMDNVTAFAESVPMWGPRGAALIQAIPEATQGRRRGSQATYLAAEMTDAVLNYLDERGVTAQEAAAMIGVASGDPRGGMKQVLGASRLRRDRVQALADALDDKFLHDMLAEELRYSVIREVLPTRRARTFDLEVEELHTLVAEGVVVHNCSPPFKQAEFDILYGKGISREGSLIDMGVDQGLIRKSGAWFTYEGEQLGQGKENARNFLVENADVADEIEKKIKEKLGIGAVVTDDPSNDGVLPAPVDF

[4] = A549 cell cytotoxicity, dose response, cytotoxicity control, plate reader, cherry-pick, antagonist series (AID 743412); format: functional, cell-based
[5] = HepG2 cell cytotoxicity, dose response, cytotoxicity control, plate reader, cherry-pick, antagonist series (AID 743416); format: functional, cell-based
[6] = LGR2 antagonists, dose response, cell-based, HEK293, CRE-luciferase reporter, cherry pick, set 2 (AID 743343); format: functional;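 further: transfected cells were stimulated with diluted bursicon conditioned medium after compound addition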
[7] = HEK293 cell cytotoxicity, dose response, cytotoxicity control, plate reader, cherry-picked samples (AID 743446); format: functional, cell-based
[8] = target: Cytochrome P450 3A4 (Homo sapiens, UniProt P08684); details: Potency;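 further: confirmatory qHTS run detecting inhibitors and substrates of CYP3A4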
[9] = target: Large T antigen (Simian virus 40, UniProt P03070); format: functional, Betapolyomavirus macacae;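 further: Confirmatory-stage PubChem screen for compounds that inhibit SV40 T antigen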
[10] = Luminescence Cell-Based Dose Confirmation HTS to Identify Activators of 5'UTR Stem-Loop Driven Alpha-Synuclein mRNA Translation in H4 Neuroglioblastoma Cells. [Related pubchem assays: 1829 (Project Summary), 1814 (Primary HTS)]; format: functional
[11] = Luminescence Cell-Based Dose Response HTS to Identify Activators of Luciferase Translation or Activity in H4 […] Cells. [Related pubchem assays: 1829 (Project Summary), 1814 (Primary HTS)]; format: functional
[12] = system: H4; assay: Luminescence Cell-Based Dose Response HTS to Identify Activators of 5'UTR Stem-Loop Driven Prion Protein mRNA Translation in H4 Neuroglioblastoma Cells. [Related pubchem assays: 1829 (Project Summary), 1814 (Primary HTS)]; format: functional; details: Homo sapiens
[13] = target: T1, Heat shock factor protein 1; assay: inhibition of MG132-induced HSE-luciferase signal, confirmation, cell-based, NIH3T3, luminescence, dose retest (AID 2382); format: functional;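 further: NIH3T3 fibroblasts with HSF1-driven luciferase reporter stressed by proteasome inhibitor MG132; luminescence from HSF1-driven luciferase expression after 8 hours of MG132 stress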
[14] = Luminescence Cell-Based Dose Retest to Confirm Inhibitors of Cancer Stem Cells. [Related pubchem assays (depositor defined):AID2717, AID2721]; format: functional; details: Homo sapiens
[15] = cytotoxicity in HEK-293T cells, dose response, cytotoxicity control for TCR NF-kB inhibitor project, luminescence, T-cell screen hits (AID 489026); format: functional, cell-based;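 further: cells exposed to compound about 14 hours before the viability readout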
[16] = MC4R antagonists, dose response, counter-screen for LGR2 antagonist project, cell-based, plate reader, cherry pick (AID 743444); format: functional;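 further: transfected HEK 293 cells stimulated with alpha-MSH peptide; potency of inhibitors of the alpha-MSH evoked signal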
[17] = system: P388/ADR; assay: cells; format: functional; details: Mus musculus
[18] = system: SN12K1; assay: cells; format: functional; details: Homo sapiens
[19] = system: P388; assay: cells; format: functional; details: Mus musculus
[20] = P. falciparum Dd2 growth inhibitors, dose response, SYBR Green, cherry-picked samples (AID 1159567); format: functional, cell-based

Chain of Large T antigen (P03070 whole entry): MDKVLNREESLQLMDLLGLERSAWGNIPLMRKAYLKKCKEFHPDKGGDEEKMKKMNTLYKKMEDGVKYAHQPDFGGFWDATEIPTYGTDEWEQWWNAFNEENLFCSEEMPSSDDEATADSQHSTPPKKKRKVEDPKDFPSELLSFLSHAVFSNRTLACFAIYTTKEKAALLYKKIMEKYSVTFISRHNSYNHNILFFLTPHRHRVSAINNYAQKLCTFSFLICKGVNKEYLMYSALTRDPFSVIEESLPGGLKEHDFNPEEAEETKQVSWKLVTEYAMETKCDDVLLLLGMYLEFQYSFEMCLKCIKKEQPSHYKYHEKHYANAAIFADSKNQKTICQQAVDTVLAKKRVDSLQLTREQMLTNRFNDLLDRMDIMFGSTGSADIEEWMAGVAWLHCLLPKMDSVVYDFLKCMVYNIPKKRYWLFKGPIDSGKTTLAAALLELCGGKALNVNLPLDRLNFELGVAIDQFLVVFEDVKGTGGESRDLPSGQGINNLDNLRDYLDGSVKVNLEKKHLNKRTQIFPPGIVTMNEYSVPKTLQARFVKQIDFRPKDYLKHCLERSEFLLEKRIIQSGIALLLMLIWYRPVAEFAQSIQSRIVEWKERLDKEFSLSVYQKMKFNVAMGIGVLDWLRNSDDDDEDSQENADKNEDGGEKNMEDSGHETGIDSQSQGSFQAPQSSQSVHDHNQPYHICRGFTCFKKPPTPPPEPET
Chain of Cytochrome P450 3A4 (P08684 whole entry): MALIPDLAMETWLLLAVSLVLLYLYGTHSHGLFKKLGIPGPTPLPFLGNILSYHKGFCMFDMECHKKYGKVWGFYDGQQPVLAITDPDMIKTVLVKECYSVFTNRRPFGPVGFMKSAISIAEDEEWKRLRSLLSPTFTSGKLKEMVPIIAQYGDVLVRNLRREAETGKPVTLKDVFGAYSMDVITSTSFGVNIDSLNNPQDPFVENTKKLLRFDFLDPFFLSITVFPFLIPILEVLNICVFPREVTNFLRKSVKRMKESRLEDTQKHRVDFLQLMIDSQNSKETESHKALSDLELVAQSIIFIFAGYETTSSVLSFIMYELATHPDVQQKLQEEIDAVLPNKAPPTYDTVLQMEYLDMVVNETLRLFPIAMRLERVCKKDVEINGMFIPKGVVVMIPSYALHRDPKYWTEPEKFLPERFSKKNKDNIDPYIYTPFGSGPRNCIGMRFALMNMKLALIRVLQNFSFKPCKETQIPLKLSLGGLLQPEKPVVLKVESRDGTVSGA

COc1ccc(-c2cc(C(F)(F)F)nc(S(=O)(=O)CCCC(=O)Nc3cccc(O)c3)n2)cc1OC
EC50 [1]: 7.17 µM (active) | AC50 [2]: 162 µM (active) | EC50 [3]: 11.3 µM (active) | AC50 [4]: 24.2 µM (active) | AC50 [5]: 12.7 µM (active) | AC50 [6]: 11.8 µM (active) | AC50 [7]: 10.5 µM (active)

CC1(C)C(=O)C2C[C@]3(O)C4=CC(=O)OC(c5ccoc5)[C@]4(C)CCC3[C@](C)(C2=O)C1CC(=O)O (stereo not given in full)
AC50 [8]: 25.1 µM (inconclusive)

COc1ccc(N2CCN(C(=O)NC3CC(=O)N(c4ccc(OC)cc4)C3)CC2)cc1 (stereo not given)
IC50 [9]: 43.3 µM (active)

CCCCN1Cc2c(nc3cc(-c4ccco4)nn3c2O)C1=O
IC50 [9]: 35.6 µM (active)

Cc1nc(NCc2ccco2)c2c(C)c(C)sc2n1
EC50 [10]: > 120 µM (not active) | EC50 [11]: 8.42 µM (active) | EC50 [12]: > 120 µM (not active) | EC50 [13]: 1.22 µM (active) | AC50 [14]: 3.97 µM (active) | IC50 [15]: > 80 µM (inactive)

CC(=O)N1CC=CC1(CC(C)C)C(=O)NCc1ccc(C)o1 (stereo not given)
AC50 [8]: 15.8 µM (inconclusive)

COC(=O)[C@@]1(C)C=C[C@@H](Cc2ccccc2)N1C(C)=O
AC50 [8]: 31.6 µM (inconclusive)

c1ccc(-c2ccc3c(c2)NCCN3)cc1
EC50 [10]: 16.3 µM (active) | EC50 [11]: 25 µM (active) | EC50 [12]: 50.5 µM (active) | IC50 [9]: 7.54 µM (active)

CCCCNc1nc(C)nc2c1nc(-c1ccccc1)n2CCCCN(CC)CC
AC50 [8]: 12.6 µM (inconclusive)

Cc1cccc(N2CCN(C(=O)c3c(-c4ccccc4Cl)noc3C)CC2)c1C
IC50 [15]: > 80 µM (inactive)

NC(c1ccccc1)c1csc(NC(=O)Nc2cccc(Cl)c2)n1 (stereo not given)
AC50 [4]: 21.1 µM (active) | AC50 [5]: 16.3 µM (active) | AC50 [6]: 28.8 µM (active) | AC50 [16]: 36.7 µM (active) | AC50 [7]: 50.9 µM (active)

O=C(CCN1CCCCC1)C(=Cc1ccccc1)C(=O)CCN1CCCCC1
GI50 [17]: 25.9 µM (inactive) | GI50 [18]: 52.4 µM (inactive) | GI50 [19]: 15.6 µM (inactive)

Cc1occc1C(=O)N/N=C/C=C/c1ccc(N(C)C)cc1
IC50 [9]: 19.7 µM (active)

CN(C)CCNC(=O)c1cccc2c(=O)c3ccccc3oc12
GI50 [17]: 28 µM (inactive) | GI50 [18]: 19.7 µM (inactive) | GI50 [19]: 15 µM (inactive)

O=C(O)/C=C/C(=O)N1C/C(=C\c2ccccc2)C(=O)/C(=C/c2ccccc2)C1
GI50 [17]: 13.8 µM (inactive) | GI50 [18]: 1.82 µM (inactive) | GI50 [19]: 11.9 µM (inactive)

COc1cc(C2c3cc4c(cc3[C@@H](Nc3ccccc3)C3COC(=O)[C@H]23)OCO4)cc(OC)c1O (stereo not given in full)
GI50 [17]: 0.0344 µM (active) | GI50 [18]: < 0.0164 µM (active) | GI50 [19]: < 0.01 µM (active)

CCCCCCN(C(=O)CCCCCN1C(=O)NC(c2ccc(-c3ccccc3)cc2)C(C(=O)OCc2ccccc2)=C1C)C(C(=O)NCCCC)c1ccc(OCC(=O)O)c(C(=O)O)c1 (stereo not given)
AC50 [8]: 15.8 µM (inconclusive)

Cc1ccccc1OCCCN1CCC(C(O)(c2ccccc2)c2ccccc2)CC1
AC50 [4]: 25.7 µM (active) | AC50 [5]: 22.6 µM (active) | AC50 [6]: 19.9 µM (active) | AC50 [16]: 18.5 µM (active) | AC50 [7]: 16.1 µM (active)

CC(C)NC(=O)N1[C@H](CO)[C@@H](c2ccccc2)C12CN(Cc1ccc(Cl)cc1)C2
AC50 [20]: 4.74 µM (active)

CO[C@@H]1CN(C)C(=O)c2cc(NC(=O)c3nc4ccccc4s3)ccc2OC[C@@H](C)N(Cc2ccccc2)C[C@H]1C
AC50 [20]: 3.99 µM (active)

Nc1ccc(O)cc1 [4-AMINOPHENOL]
AC50 [2]: > 380 µM (inactive) | EC50 [3]: > 380 µM (inconclusive) | AC50 [8]: 25.1 µM (inconclusive)

COC(=O)[C@@]12OC[C@]34[C@H]([C@@H](O)[C@@H]1O)[C@@]1(C)CC(=O)C(O)=C(C)[C@@H]1C[C@H]3OC(=O)[C@H](OC(=O)/C=C(\C)C(C)C)[C@@H]24 [BRUCEANTIN]
GI50 [17]: 0.0244 µM (active) | GI50 [18]: 0.02 µM (active) | GI50 [19]: 0.021 µM (active)

C=CC(C1=CC(=O)C(OC)=CC1=O)c1ccc(O)cc1 (stereo not given) [DALBERGIONE, 4-METHOXY-4'-HYDROXY-]
AC50 [8]: 25.1 µM (inconclusive)

Cc1cc(O)c2c(=O)c3c(O)cc(O)c4c5c(O)cc(O)c6c(=O)c7c(O)cc(C)c8c1c2c(c34)c(c78)c65 [HYPERICIN]
GI50 [17]: 49.2 µM (inactive) | GI50 [18]: 92.7 µM (inactive) | GI50 [19]: 11.9 µM (inactive)
